Data reported in article PMC10624628 (2023).

Legend:
[1] = tested on: SAMURI / 17-mer substrate RNA (RNA, ribozyme) GGUUGAAGGCAUGGCUCAGGGACUUCGGUCCGCUGCAGUCAGUAUGUCC/ACAUACUGAGCCUUCAA; test: Michaelis-Menten fit of kobs, alkylation of Cy5-labelled substrate, denaturing PAGE; settings: 120 mM KCl, 5 mM NaCl, 10 mM MgCl2; 50 mM HEPES, pH 7.5, 37 °C; apparent; 32.6 ± 2.2 µM at 0.5 mM Mg2+; covalent transfer to substrate
[2] = tested on: SAMURI / 17-mer substrate RNA (RNA, ribozyme) GGUUGAAGGCAUGGCUCAGGGACUUCGGUCCGCUGCAGUCAGUAUGUCC/ACAUACUGAGCCUUCAA; test: inhibition of SAMURI trans-propargylation, PAGE; settings: 120 mM KCl, 5 mM NaCl, 10 mM MgCl2; pH 7.5, 37 °C, 1 h; no competition with 10 µM ProSeDMA up to 1 mM SAM; methylates substrate at 3 mM

Compound	Km,app [1] [µM]	binding [2]
C#CC[Se+](CCC(N)C(N)=O)C[C@H]1O[C@@H](n2cnc3c(N)nc(N)nc32)[C@H](O)[C@@H]1O (some centres unmarked)	8.9 ± 1.9	
C[S+](CC[C@H](N)C(=O)O)C[C@H]1O[C@@H](n2cnc3c(N)ncnc32)[C@H](O)[C@@H]1O (some centres unmarked)		weak
